{
  "source": "patent US12703851B2",
  "about": "“Cell culture methods” (The University of Massachusetts, priority 2019, dated 2026)",
  "type_in_all_cases": "cell-based, Chinese hamster",
  "key": {"CHO K-1": {"tested_on": "CHO K-1", "test": "Batch culture spiking of metabolites at end-of-culture concentration", "details": "spiked at end-of-culture concentration, 6 days batch culture", "procedure": "CHO K-1 industrial standard batch process: NIH CHO-K1 cell line is cultured for 6 days, with 6 mM glutamine supplement on the inoculation day. The working volume is 30 mL in 125 mL shake flasks, and the inoculation cell density is 0.5 million cells/mL. The parameters for the shaking incubator are: 125 RPM, and 5% CO2.\nCells were exposed to the identified inhibitory metabolites of Table 1 at their end-of-culture concentration for 6 days in batch culture. […] All of the inhibitory metabolites decreased the antibody productivity (FIG. 4)."}, "CHO-K1 cell line": {"tested_on": "CHO-K1 cell line", "test": "Fed-batch spiking test, IgG glycan profile by HPLC with Glycan Column", "details": "for impact on G1F formation: versus control group", "procedure": "Industrial standard Fed-batch process: CHO-K1 cell line is cultured in corresponding media. Feed for 14 days, with 6 mM glutamine supplement on the inoculation day. The working volume is 30 mL in 125 mL shake flasks, and the inoculation cell density is 0.5 million cells/mL. The parameters for the shaking incubator are: 125 RPM, and 5% CO2. The feeding strategy is 10% corresponding feed everyday starting from day 3 to day 13.\nIn the standard industrial fed-batch process, cells were exposed to the inhibitors for a long period of time. This experiment mimics the therapeutic antibody production process, and spikes the inhibitors at their end-of-culture cellular concentration. ICA was confirmed as a known inhibitor and was used as a positive inhibitor control. Mixture condition excluded ICA and included AA, HICA, CMP, MSA, TRI, NAP. The process lasted for 14 days, and starting from day 6, the cell density under the inhibitor conditions were lower than the negative control batch.\nIgG titer was measured by HPLC with a Protein A column. Product quality was quantified by the IgG glycan profile, which was measured by HPLC with a Glycan Column."}, "CHO-S cells": {"tested_on": "CHO-S cells", "test": "Inhibitory metabolite accumulation in transiently transfected CHO-S subclones (LC-MS)", "set-up": "dose or concentration left out as unconfirmed", "details": "6 days", "procedure": "FIG. 17A-G are graphs showing inhibitory metabolite accumulation in different subclones. Accumulation concentration of metabolites shown here: FIG. 17A, CMP; FIG. 17B, GMP; FIG. 17C, HICA, FIG. 17D, MSA, FIG. 17E, NAP, FIG. 17F, TAA; and FIG. 17G, TRI. The study was divided into […] unique subclone groups. […] A negative control was included where no plasmid transfection occurred. Each subclone was cultured for 6 days at which time cells and cell culture supernatant were collected. Cells for both the control and transfection subclones were derived from the same culture to eliminate variation in growth cycle and other culture conditions. Quantification of inhibitory metabolites accumulation was performed through LC-MS. Bars, mean±s.e.m.; n=3, *p<0.05, **p<0.01, ***p<0.001. Statistics by two-tailed t-test. LC-MS/MS method for metabolites profiling: Standards of metabolites were purchased from Sigma Aldrich (St. Louis, MO) and used for identification of wasted inhibitor metabolites. Operating parameters and samples preparation protocol were followed to a previously published protocol. Quantification of expression level of transfected gene of interest through qPCR. The expression level of seven different genes transfected into CHO-S cells were evaluated using relative quantification (RQ) compared to the calibrator. The study was divided into eight unique subclone groups. […] A negative control was included in the study where no genetic engineering work involving plasmid transfection occurred. Each subclone was cultured for 6 days. Cells for both the control and transfection subclones were derived from the same culture to eliminate variation in growth cycle and other culture conditions. […] Gene functionality study through metabolic pathway analysis. As mentioned previously, HICA is generated as the downstream metabolite from the metabolism of leucine in mammalian cells, of which cellular biochemical activities are regulated by ADH5 and BCAT1 enzymes. […] A negative control was included in the study where no genetic engineering work involving plasmid transfection occurred."}},
  "note": "“Also recorded” adds a separate entry of the source.",
  "data": [
    {"smiles": "O=C(O)C=C(CC(=O)O)C(=O)O", "note": "[AA, aconitic acid]", "values": [
      {"measurement": "cell density versus control group", "setting": "CHO K-1", "result": "lower cell density than the control group"},
      {"measurement": "impact on G2F formation", "setting": "CHO-K1 cell line; Day 14, versus control group", "result": "totally inhibits the G2F formation; also recorded: G2F was not formed"},
      {"measurement": "impact on G1F formation", "setting": "CHO-K1 cell line", "result": "higher impact on G1F formation"}
    ]},
    {"smiles": "Nc1ccn([C@@H]2O[C@H](COP(=O)(O)O)[C@@H](O)[C@H]2O)c(=O)n1", "note": "[CMP, cytidine-5′-monophosphate]", "values": [
      {"measurement": "decrease in accumulation versus control", "setting": "CHO-S cells; Got1 transfected clone", "result": 35.68, "unit": "%"},
      {"measurement": "decrease in accumulation versus control", "setting": "CHO-S cells; Hoga1 transfected clone", "result": 33.59, "unit": "%"},
      {"measurement": "decrease in accumulation versus control", "setting": "CHO-S cells; Slc35a1 transfected clone", "result": 50.63, "unit": "%"},
      {"measurement": "cell density versus control group", "setting": "CHO K-1", "result": "lower cell density than the control group"},
      {"measurement": "impact on G1F formation", "setting": "CHO-K1 cell line", "result": "higher impact on G1F formation"}
    ]},
    {"smiles": "CC(C)CC(O)C(=O)O", "note": "(stereo not drawn) [HICA, α-hydroxyisocaproic acid]", "values": [
      {"measurement": "decrease in accumulation versus control", "setting": "CHO-S cells; Adh5 transfected clone", "result": 86.13, "unit": "%"},
      {"measurement": "decrease in accumulation versus control", "setting": "CHO-S cells; Bcat1 transfected clone", "result": 72.31, "unit": "%"},
      {"measurement": "decrease in accumulation versus control", "setting": "CHO-S cells; Hadhb transfected clone", "result": 27.05, "unit": "%"},
      {"measurement": "decrease in accumulation versus control", "setting": "CHO-S cells; Slc35a1 transfected clone", "result": 73.51, "unit": "%"},
      {"measurement": "impact on G1F formation", "setting": "CHO-K1 cell line", "result": "higher impact on G1F formation"}
    ]},
    {"smiles": "O=C(O)c1c[nH]c2ccccc12", "note": "[ICA, indole-3-carboxylic acid, reference compound]", "values": [
      {"measurement": "cell density versus control group", "setting": "CHO K-1", "result": "lower cell density than the control group"},
      {"measurement": "impact on G1F formation", "setting": "CHO-K1 cell line", "result": "higher impact on G1F formation"}
    ]},
    {"smiles": "CC(CC(=O)O)C(=O)O", "note": "(centres unmarked) [MSA, methylsuccinic acid]", "values": [
      {"measurement": "impact on G1F formation", "setting": "CHO-K1 cell line", "result": "higher impact on G1F formation"}
    ]},
    {"smiles": "C[n+]1cccc(C(=O)[O-])c1", "note": "[TRI, trigonelline]", "values": [
      {"measurement": "decrease in accumulation versus control", "setting": "CHO-S cells; Bcat1 transfected clone", "result": 42.96, "unit": "%"},
      {"measurement": "decrease in accumulation versus control", "setting": "CHO-S cells; Cat transfected clone", "result": 27.8, "unit": "%"},
      {"measurement": "decrease in accumulation versus control", "setting": "CHO-S cells; Got1 transfected clone", "result": 40.43, "unit": "%"},
      {"measurement": "decrease in accumulation versus control", "setting": "CHO-S cells; Hadhb transfected clone", "result": 35.38, "unit": "%"}
    ]}
  ]
}
